Results reported in patent publication US20040110768A1, “Bombesin receptor antagonists” (priority 2000, published 2004).
Where a name gives a salt, the structure may show the parent alone.

Key:
[1] = test system: Ovariectomised adult female Sprague Dawley rats; assay: Female rat sexual receptivity test (lordosis quotient); format: in vivo
Description: Ovariectomised adult female Sprague Dawley rats (180-200 g) were housed in groups of 6 in a reversed lighting system of 12 h light:dark (lights off 7.00-19.00 h). Two weeks after ovariectomy they were used for sexual activity tests. The experiments started at least 5 h into the dark period. Compound (1) was dissolved in PEG 200 vehicle and administered orally. Quinelorane dihydrochloride (LY 163,502, 6.25 μg/kg) was dissolved in water and administered s.c., as a positive control. Both compounds were administered in a 1-ml/kg volume. Forty eight hours before tests, the animals were primed with 5 μg oestradiol benzoate dissolved in corn oil and injected s.c. The females were placed with a series of vigorous male rats and subjected to 10 mounts. The lordotic response of the animal was recorded and expressed as a percentage of the mounts (i.e. lordosis quotient, LQ). […] Animals showing higher LQ were not included in the study. Each rat was tested prior to administration of the compound (1) and then tested similarly at 1 h and at 90 min post-injection of compound (1) or quinelorane respectively.

[2] = test system: Ovariectomised adult female Sprague Dawley rats; assay: Female rat sexual proceptivity test; format: in vivo; conditions: for difference in the percentage of time spent investigating the male stimuli minus female stimuli / MED, difference in percentage of time spent investigating male minus female stimuli: 1 h before test
Description: Ovariectomised adult female Sprague Dawley rats (180-200 g) were housed in groups of 6 in a reversed lighting system of 12 h light:dark (lights off 7.00-19.00 h). Two weeks after ovariectomy they were used for sexual activity tests. Animals were Adapted to the apparatus (in the absence of stimuli animals) for 10 min on 2 Consecutive days prior to testing. The experiments started at least 5 h into the dark period. Tests were carried out in a circular arena of 90 cm diameter, surrounded by a 30 cm high wall. Two small cages with wire-mesh front (15×15 cm) are fixed into the wall such that the front of the cage is “flush” with the wall and the 2 cages are opposite each other. They contain two stimuli animals: an intact sexually experienced male and a receptive female (ovariectomised, primed with 5 μg oestradiol benzoate dissolved in corn oil and injected subcutaneously 48 h before the test and with 0.5 mg of progesterone 4 h before the test). Sexually naïve test and control animals were used. Forty eight hours before the tests, both the test and control animals were primed with 5 μg oestradiol benzoate. Test animals were treated with the above compound (1)(30-100 mg/kg) which was dissolved in PEG 200 vehicle and administered orally in a 1 ml/kg volume 1 h before each test. For animals used as positive controls, progesterone (0.5 mg/0.1 ml) was dissolved in corn oil and administered subcutaneously (s.c.), 4 h before the test. Test and control animals were introduced one at a time for 10-minute periods into the arena. During the 10-min test, the time that the test or positive control animal spent investigating each stimulus animal was noted. The arena was thoroughly cleaned between animals. The position of the male/female stimuli boxes was randomised between animals, in order to avoid place preference. The difference in the percentage of time spent investigating male minus female was calculated, out of the total time spent investigating stimuli animals.
Example 21 was repeated except that compound (1) (3-30 mg/kg) was dissolved in 0.5% methyl cellulose and was administered p.o. in a dosing volume of 3 ml/kg 1 h before tests. Progesterone (0.5 mg/0.1 ml) was dissolved in corn oil and administered s.c., 4 h before test, as a positive control.

Compound	melting point [°C]	other results
COc1ccc(C2(CNC(=O)[C@](C)(Cc3c[nH]c4ccccc34)Nc3nc(-c4ccc([N+](=O)[O-])cc4)co3)CCCCC2)nc1 [Example 1, (S)-3-(1H-Indol-3-yl)-N-[1-(5-methoxy-pyridin-2-yl)-cyclohexylmethyl]-2-methyl-2-[4-(4-nitro-phenyl)-oxazol-2-ylamino]-propionamide]	100 to 105	lordosis quotient (LQ) versus before administration ([1]; PEG 200, single oral administration, 10-100 mg/kg, 1 h after administration): increased; difference in the percentage of time spent investigating the male stimuli minus female stimuli ([2]; 0.5% methyl cellulose, p.o., 3-30 mg/kg): increased; MED, difference in percentage of time spent investigating male minus female stimuli ([2]; 0.5% methyl cellulose, p.o.): 10 mg/kg; difference in the percentage of time spent investigating the male stimuli minus female stimuli ([2]; PEG 200 vehicle, oral, 30-100 mg/kg): increased; MED, difference in percentage of time spent investigating male minus female stimuli ([2]; PEG 200 vehicle, oral): 100 mg/kg; increase in potency in methyl cellulose compared to PEG 200 vehicle ([2]; oral, MED 10 vs 100 mg/kg): 10 fold
COCC1(CNC(=O)[C@](C)(Cc2c[nH]c3ccccc23)Nc2nc(-c3ccc([N+](=O)[O-])cc3)co2)CCCCC1 [Example 2, (S)-3-(1H-Indol-3-yl)-N-(1-methoxymethyl-cyclohexylmethyl)-2-methyl-2-[4-(4-nitro-phenyl)-oxazol-2-ylamino]-propionamide]	189 to 192	–
C[C@@](Cc1c[nH]c2ccccc12)(Nc1nc(-c2ccc([N+](=O)[O-])cc2)co1)C(=O)NCC(=O)c1ccccc1 [Example 3, (S)-3-(1H-Indol-3-yl)-2-methyl-2-[4-(4-nitro-phenyl)-oxazol-2-ylamino]-N-(2-oxo-2-phenyl-ethyl)-propionamide]	80 to 90	–
COc1ccc(C2(CNC(=O)[C@](C)(Cc3c[nH]c4ccccc34)Nc3nc(-c4ccc([N+](=O)[O-])cc4)cs3)CCCCC2)nc1 [Example 8, (S)-3-(1H-Indol-3-yl)-N-[1-(5-methoxy-pyridin-2-yl)-cyclohexylmethyl]-2-methyl-2-[4-(4-nitro-phenyl)-thiazol-2-ylamino]-propionamide]	110 to 114	–
CC(=O)[C@H]1CC[C@H]2[C@@H]3CCC4=CC(=O)CC[C@]4(C)[C@H]3CC[C@]12C [progesterone, reference compound]	–	effect on proceptivity (positive control) ([2]; 0.5 mg/0.1 ml in corn oil s.c., 4 h before test): maximal
CCCN1CCC[C@@H]2Cc3nc(N)ncc3C[C@H]21 [quinelorane, Quinelorane dihydrochloride, reference compound]	–	lordosis quotient (LQ) versus before administration ([1]; 6.25 μg/kg s.c. in water, 90 min after administration): significantly (P<0.01) increased

The next lines start with results.

melting point [°C]	Compound	other results
105 to 108	COc1ccc(C2(CNC(=O)[C@](C)(Cc3c[nH]c4ccccc34)Nc3nc(-c4ccc(C#N)cc4)co3)CCCCC2)nc1 [Example 5, (S)-2-[4-(4-Cyano-phenyl)-oxazol-2-ylamino]-3-(1H-indol-3-yl)-N-[1-(5-methoxy-pyridin-2-yl)-cyclohexylmethyl]-2-methyl-propionamide]	–
85 to 90	COc1ccc(C2(CNC(=O)[C@](C)(Cc3c[nH]c4ccccc34)Nc3nc(-c4ccccc4)co3)CCCCC2)nc1 [Example 6, (S)-3-(1H-Indol-3-yl)-N-[1-(5-methoxy-pyridin-2-yl)-cyclohexylmethyl]-2-methyl-2-(4-phenyl-oxazol-2-ylamino)-propionamide]	–
60 to 65	CCc1coc(N[C@@](C)(Cc2c[nH]c3ccccc23)C(=O)NCC2(c3ccc(OC)cn3)CCCCC2)n1 [Example 7, (S)-2-(4-Ethyl-oxazol-2-ylamino)-3-(1H-indol-3-yl)-N-[1-(5-methoxy-pyridin-2-yl)-cyclohexylmethyl]-2-methyl-propionamide]	–
198 to 200	C[C@@](Cc1c[nH]c2ccccc12)(Nc1nc2ccccc2o1)C(=O)NCC1(c2ccccn2)CCCCC1 [Example 9, (S)-2-(Benzooxazol-2-ylamino)-3-(1H-indol-3-yl)-2-m thyl-N-(1-pyridin-2-yl-cyclohxylmethyl)-propionamide]	–
180 to 195	C[C@@](Cc1c[nH]c2ccccc12)(Nc1ccncc1)C(=O)NCC1(c2ccccn2)CCCCC1 [Example 10, (S)-3-(1H-Indol-3-yl)-2-methyl-2-(pyridin-4-ylamino)-N-(1-pyridin-2-yl-cyclohexylmethyl)-propionamide]	–
98 to 101	C[C@@](Cc1c[nH]c2ccccc12)(Nc1cncc2ccccc12)C(=O)NCC1(c2ccccn2)CCCCC1 [Example 11, (S)-3-(1H-Indol-3-yl)-2-(isoquinolin-4-ylamino)-2-methyl-N-(1-pyridin-2-yl-cyclohexylmethyl)-propionamide]	–
95 to 98	C[C@@](Cc1c[nH]c2ccccc12)(Nc1cncnc1)C(=O)NCC1(c2ccccn2)CCCCC1 [Example 12, (S)-3-(1H-Indol-3-yl)-2-methyl-N-(1-pyridin-2-yl-cyclohexylmethyl)-2-(pyrimidin-5-ylamino)-propionamide]	–
70 to 75	Cc1cccc(N[C@@](C)(Cc2c[nH]c3ccccc23)C(=O)NCC2(c3ccccn3)CCCCC2)c1 [Example 14, (S)-3-(1H-Indol-3-yl)-2-methyl-N-(1-pyridin-2-yl-cyclohexylmethyl)-2-m-tolylamino-propionamide]	–
58 to 60	C[C@@](Cc1c[nH]c2ccccc12)(NCc1ccc([N+](=O)[O-])cc1)C(=O)NCC1(c2ccccn2)CCCCC1 [Example 19, (S)-3-(1H-Indol-3-yl)-2-methyl-2-(4-nitro-benzylamino)-N-(1-pyridin-2-yl-cyclohexylmethyl)-propionamide]	–
